Test results taken from PMC7036018 (ACS chemical biology, 2020).

Key:
P. aeruginosa [1] = details: cited from earlier work
P. aeruginosa [2] = experiment: Mass spectrometry of compound levels in cell-free culture fluid and cell lysate; assay type: cell-based, Pseudomonas aeruginosa; details: positive control
P. aeruginosa [3] = experiment: PqsE-dependent pyocyanin production; assay type: cell-based, Pseudomonas aeruginosa; details: 100 μM, overnight at 37°C, OD695

Which “effect on in vivo pyocyanin production levels” value (P. aeruginosa [1]) does the source give for `O=C(O)c1ccccc1-c1cccnc1` [Compound C1, 2-(pyridin-3’-yl) benzoic acid] here?
Its value is “does not affect in vivo pyocyanin production levels”.

With meta-bromo-thiolactone [mBTL] as the molecule, how does the “concentration in cell lysate over time” value (P. aeruginosa [2]) read?
The value was “increased”.

And the “concentration in cell-free culture fluid over time” value (P. aeruginosa [2])?
Its value is “progressively decreased”.

What about the “effect on pyocyanin production” value (P. aeruginosa [3]) of the same molecule?
The value was “known inhibitor of pyocyanin production”.
